In ChEMBL document CHEMBL5724914, “Linking interpersonal differences in gut microbiota composition and drug biotransformation activity” (2024):

Experiments:
[1] = (§1) The drug is tested on Z-026 corresponding to metagenome with ENA study accession number: PRJEB37062 and ENA sample accession number: ERS12561825 for biotransformation under anaerobic condition. The drug concentrations were measured over 9 timepoints collected between 0 and 24 hours of incubation by liquid-chromatography-coupled mass spectrometry (LC–MS); conditions: 2 µM
[2] = (§2) The drug is tested on WLS-240 corresponding to human gut metagenome with ENA study accession number: PRJEB37062 and ENA sample accession number: ERS12561773 for biotransformation under anaerobic condition. The drug concentrations were measured over 9 timepoints collected between 0 and 24 hours of incubation by liquid-chromatography-coupled mass spectrometry (LC–MS); conditions: 2 µM
[3] = human gut metagenome, 24 h, 2 µM
[4] = as §2, with “Z-030” for “WLS-240”, “mouse” for “human”, “ERS12561829” for “ERS12561773”; conditions: 2 µM
[5] = human gut metagenome, 24 h, 2 µM; remark: listed apart in the source
[6] = as §2, with “WLS-039” for “WLS-240”, “ERS12561746” for “ERS12561773”; conditions: 2 µM
[7] = human gut metagenome, 24 h, 2 µM; remark: listed apart in the source
[8] = human gut metagenome, 24 h, 2 µM; remark: listed apart in the source
[9] = as §1, with “Z-008” for “Z-026”, “ERS12561808” for “ERS12561825”; conditions: 2 µM
[10] = as §2, with “Z-025” for “WLS-240”, “rabbit” for “human”, “ERS12561824” for “ERS12561773”; conditions: 2 µM
[11] = as §2, with “WLS-077” for “WLS-240”, “ERS12561750” for “ERS12561773”; conditions: 2 µM
[12] = human gut metagenome, 24 h, 2 µM; remark: listed apart in the source
[13] = human gut metagenome, 24 h, 2 µM; remark: listed apart in the source
[14] = as §1, with “Z-021” for “Z-026”, “ERS12561820” for “ERS12561825”; conditions: 2 µM
[15] = as §2, with “WLS-010” for “WLS-240”, “ERS12561743” for “ERS12561773”; conditions: 2 µM
[16] = human gut metagenome, 24 h, 2 µM; remark: listed apart in the source
[17] = as §2, with “WLS-073” for “WLS-240”, “ERS12561749” for “ERS12561773”; conditions: 2 µM
[18] = as §2, with “Z-007” for “WLS-240”, “rat” for “human”, “ERS12561807” for “ERS12561773”; conditions: 2 µM
[19] = human gut metagenome, 24 h, 2 µM; remark: listed apart in the source
[20] = human gut metagenome, 24 h, 2 µM; remark: listed apart in the source
Further: call rule not given here.

Structure (SMILES)	Bacterial Biotransformation [1]	Bacterial Biotransformation [2]	Bacterial Biotransformation [3]	Bacterial Biotransformation [4]	Bacterial Biotransformation [5]	Bacterial Biotransformation [6]	Bacterial Biotransformation [7]	Bacterial Biotransformation [8]	Bacterial Biotransformation [9]	Bacterial Biotransformation [10]	Bacterial Biotransformation [11]	Bacterial Biotransformation [12]	Bacterial Biotransformation [13]	Bacterial Biotransformation [14]	Bacterial Biotransformation [15]	Bacterial Biotransformation [16]	Bacterial Biotransformation [17]	Bacterial Biotransformation [18]	Bacterial Biotransformation [19]	Bacterial Biotransformation [20]
Nc1nc(N)nc(-c2cc(Cl)ccc2Cl)n1.O=C(O)/C=C\C(=O)O [IRSOGLADINE MALEATE]	Compound NOT metabolized	Compound NOT metabolized	Compound metabolized	Compound NOT metabolized	Compound NOT metabolized	Compound NOT metabolized	Compound NOT metabolized	Compound NOT metabolized	Compound NOT metabolized	Compound metabolized	Compound NOT metabolized	Compound NOT metabolized	Compound NOT metabolized	Compound NOT metabolized	Compound NOT metabolized	Compound metabolized	Compound NOT metabolized	Compound NOT metabolized	Compound NOT metabolized	Compound NOT metabolized
CN1CCC(=C2c3ccccc3CC(=O)c3sccc32)CC1.O=C(O)/C=C/C(=O)O [KETOTIFEN FUMARATE]	Compound NOT metabolized	Compound metabolized	Compound metabolized	Compound NOT metabolized	Compound NOT metabolized	Compound NOT metabolized	Compound metabolized	Compound NOT metabolized	Compound NOT metabolized	Compound NOT metabolized	Compound NOT metabolized	Compound NOT metabolized	Compound metabolized	Compound NOT metabolized	Compound NOT metabolized	Compound metabolized	Compound metabolized	Compound NOT metabolized	Compound NOT metabolized	Compound metabolized
CC[C@H](C)C(=O)O[C@H]1CCC=C2C=C[C@H](C)[C@H](CC[C@@H]3C[C@@H](O)CC(=O)O3)[C@H]21 [MEVASTATIN]	Compound metabolized	Compound metabolized	Compound metabolized	Compound metabolized	Compound metabolized	Compound metabolized	Compound metabolized	Compound metabolized	Compound NOT metabolized	Compound metabolized	Compound NOT metabolized	Compound NOT metabolized	Compound NOT metabolized	Compound NOT metabolized	Compound metabolized	Compound metabolized	Compound NOT metabolized	Compound NOT metabolized	Compound metabolized	Compound metabolized
COc1ccc2cc([C@H](C)C(=O)O)ccc2c1 [NAPROXEN]	Compound NOT metabolized	Compound metabolized	Compound metabolized	Compound NOT metabolized	Compound NOT metabolized	Compound metabolized	Compound metabolized	Compound metabolized	Compound NOT metabolized	Compound NOT metabolized	Compound NOT metabolized	Compound metabolized	Compound metabolized	Compound NOT metabolized	Compound metabolized	Compound metabolized	Compound NOT metabolized	Compound NOT metabolized	Compound NOT metabolized	Compound metabolized
